The record followed here is ChEMBL document CHEMBL4152251, “Lactam hybrid analogues of solonamide B and autoinducing peptides as potent S. aureus AgrC antagonists” (Eur J Med Chem, 2018).

Test [1] concerns the target T1, Receptor-histidine kinase AgrC (Staphylococcus aureus, UniProt O07911).
T1 sequence (O07911 whole entry): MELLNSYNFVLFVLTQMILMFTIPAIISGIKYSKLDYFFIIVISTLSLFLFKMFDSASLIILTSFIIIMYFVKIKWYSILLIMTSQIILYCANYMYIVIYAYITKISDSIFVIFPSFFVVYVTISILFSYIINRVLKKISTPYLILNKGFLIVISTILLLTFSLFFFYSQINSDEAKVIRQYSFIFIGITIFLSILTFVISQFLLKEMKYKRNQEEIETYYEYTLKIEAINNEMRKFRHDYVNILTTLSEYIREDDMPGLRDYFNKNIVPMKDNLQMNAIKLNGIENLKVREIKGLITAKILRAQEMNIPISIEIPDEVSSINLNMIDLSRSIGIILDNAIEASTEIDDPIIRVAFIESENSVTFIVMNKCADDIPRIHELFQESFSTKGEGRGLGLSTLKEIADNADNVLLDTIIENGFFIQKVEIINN
Put plainly: Inhibition of AIP-stimulated quorum sensing system AgrC activation in Staphylococcus aureus RN10829 harboring P3:blaZ fusion assessed as reduction in beta-lactamse activity preincubated with organism followed by AIP addition measured after 45 mins by nitrocefin hydrolysis assay.

Test [2] addresses T2, Receptor-histidine kinase AgrC (Staphylococcus aureus) (UniProt O07911).
T2 sequence (whole entry): T1 sequence (O07911 whole entry)
In words: Inhibition of AIP-stimulated quorum sensing system AgrC activation in Staphylococcus aureus RN10829 harboring P3:blaZ fusion assessed as reduction in beta-lactamse activity at 5 ug/ml preincubated with organism followed by AIP addition measured after 45 mins by nitrocefin hydrolysis assay.

Activity calls are given as the source filed them. The rule behind the calls is not given here. Bridge positions count the residues as written; N and C are the ends. Square brackets hold non-standard residues; d marks the D form. Peptide text beside a SMILES is read from it. * marks the point of attachment. Decanoyl(3,6,9-trioxa) = COCCOCCOCC(=O)*; Decanoyl = CCCCCCCCCC(=O)*; Heptanoyl = CCCCCCC(=O)*; Orn = NCCC[C@H](N)C(=O)O; Dab = NCC[C@H](N)C(=O)O; Dap = NC[C@H](N)C(=O)O

Consider `CCCCCCC(=O)N[C@@H]1CNC(=O)[C@@H](CC(C)C)NC(=O)[C@@H](C)NC(=O)[C@@H](CC(C)C)NC(=O)[C@@H](Cc2ccccc2)NC1=O`, for which the IC50 (as a rule, the concentration that gives 50% inhibition) in test [1] is 622 nM. In test [2], the inhibition result was “Active”.
Take `CCCCCCC(=O)N[C@@H]1CNC(=O)[C@@H](CC(C)C)NC(=O)[C@@H](C)NC(=O)[C@@H](C)NC(=O)[C@@H](Cc2ccccc2)NC1=O`: in test [2], the inhibition entry is “Active”.
Turning to `CCCCCCC(=O)N[C@@H]1CNC(=O)[C@@H](CC(C)C)NC(=O)[C@@H](C)NC(=O)[C@@H](Cc2ccccc2)NC(=O)[C@@H](Cc2ccccc2)NC1=O`, the IC50 in test [1] was 739 nM. In addition, in test [2], the inhibition result was “Active”.
The like results for `CCCCCCC(=O)N[C@@H]1CNC(=O)[C@@H](CCC(C)C)NC(=O)[C@@H](C)NC(=O)[C@@H](CC(C)C)NC(=O)[C@@H](Cc2ccccc2)NC1=O` were, in that order, 913 nM and “Active”.
As to `CCCCCCC(=O)N[C@H]1CCCCNC(=O)[C@H](CC(C)C)NC(=O)[C@H](C)NC(=O)[C@H](CC(C)C)NC(=O)[C@H](Cc2ccccc2)NC1=O` (Heptanoyl-KFLAL; lactam 1-C), the inhibition result in test [2] is “inactive”.
On the same count and under the same terms, next, `CCCCCCC(=O)N[C@@H]1CNC(=O)[C@@H](CC(C)C)NC(=O)[C@@H](CC(C)C)NC(=O)[C@@H](CC(C)C)NC(=O)[C@@H](Cc2ccccc2)NC1=O`: “inactive”.
In the case of `CCCCCCC(=O)N[C@@H]1CNC(=O)[C@@H](CC(C)C)NC(=O)[C@@H](C)NC(=O)[C@@H](CCC(C)C)NC(=O)[C@@H](Cc2ccccc2)NC1=O`, in test [1], the concentration for half-maximal inhibition (IC50) was 609 nM. Further, the inhibition result in test [2] is “Active”.
`CCCCCCCCCC(=O)N[C@H]1CNC(=O)[C@H](CC(C)C)NC(=O)[C@H](C)NC(=O)[C@H](CC(C)C)NC(=O)[C@H](Cc2ccccc2)NC1=O` (Decanoyl-[Dap]FLAL; lactam 1-C): the inhibition result in test [2] is “Active”.
Turning to `CCCCCCC(=O)N[C@@H]1CNC(=O)[C@@H](CC(C)C)NC(=O)[C@@H](C)NC(=O)[C@@H](CC(C)C)NC(=O)[C@@H](Cc2cccc3ccccc23)NC1=O`, the inhibition result in test [2] is “inactive”.
On to `CCCCCCCC(=O)N[C@@H]1CNC(=O)[C@@H](CC(C)C)NC(=O)[C@@H](C)NC(=O)[C@@H](CC(C)C)NC(=O)[C@@H](Cc2ccccc2)NC1=O`, for which the IC50 in test [1] was 457 nM. The inhibition entry in test [2] was “Active”.
In the case of `CCCCCCC(=O)N[C@H]1CCCNC(=O)[C@H](CC(C)C)NC(=O)[C@H](C)NC(=O)[C@H](CC(C)C)NC(=O)[C@H](Cc2ccccc2)NC1=O` (Heptanoyl-[Orn]FLAL; lactam 1-C), in test [2], the inhibition entry is “inactive”.
The same measure, in the same setting: the value for `CCCCCCC(=O)N[C@@H]1CNC(=O)[C@@H](Cc2ccccc2)NC(=O)[C@@H](C)NC(=O)[C@@H](CC(C)C)NC(=O)[C@@H](CC(C)C)NC1=O` was “inactive”; that for `CCCCCCC(=O)N[C@@H]1CNC(=O)[C@@H](CC(C)C)NC(=O)CNC(=O)[C@@H](CC(C)C)NC(=O)[C@@H](Cc2ccccc2)NC1=O` was “inactive”.
The same measure, in the same setting: next, `CCCCCCC(=O)N[C@@H]1CNC(=O)[C@@H](CC(C)C)NC(=O)[C@H](C)NC(=O)[C@H](CC(C)C)NC(=O)[C@@H](Cc2ccccc2)NC1=O`: “inactive”.
On to `CCCCCCC(=O)N[C@@H]1CNC(=O)[C@@H](C)NC(=O)[C@@H](C)NC(=O)[C@@H](CC(C)C)NC(=O)[C@@H](Cc2ccccc2)NC1=O`, for which, in test [1], the concentration for half-maximal inhibition (IC50) is 69100 nM. Further, the inhibition result in test [2] is “Active”.
For `CCCCCCC(=O)N[C@@H]1CNC(=O)[C@@H](CC(C)C)NC(=O)[C@@H](C)NC(=O)[C@@H](CC(C)C)NC(=O)[C@@H](C)NC1=O`, the inhibition entry in test [2] is “Active”.
On the same count and under the same terms, the value for `CCCCCCC(=O)N[C@@H]1CNC(=O)[C@@H](CC(C)C)NC(=O)[C@@H](C)NC(=O)[C@@H](CC(C)C)NC(=O)[C@@H](Cc2c[nH]c3ccccc23)NC1=O` was “inactive”; that for `COCCOCCOCC(=O)N[C@H]1CNC(=O)[C@H](CC(C)C)NC(=O)[C@H](C)NC(=O)[C@H](CC(C)C)NC(=O)[C@H](Cc2ccccc2)NC1=O` ({Decanoyl(3,6,9-trioxa)}-[Dap]FLAL; lactam 1-C) was “inactive”.
Turning to `CCCCCCC(=O)N[C@@H]1CNC(=O)[C@@H](CC(C)C)NC(=O)[C@@H](C)NC(=O)[C@@H](CC(C)C)NC(=O)[C@@H](CCc2ccccc2)NC1=O`, in test [2], the inhibition entry is “inactive”.
On the same count and under the same terms, the value for `CCCCCCCCCCCC(=O)N[C@@H]1CNC(=O)[C@@H](CC(C)C)NC(=O)[C@@H](C)NC(=O)[C@@H](CC(C)C)NC(=O)[C@@H](Cc2ccccc2)NC1=O` was “Active”; that for `CCCCCCC(=O)N[C@H]1CNC(=O)[C@H](CC(C)C)NC(=O)[C@@H](C)NC(=O)[C@@H](CC(C)C)NC(=O)[C@H](Cc2ccccc2)NC1=O` was “inactive”.
The same measure, in the same setting: next, `CCCCCCC(=O)N[C@H]1CNC(=O)[C@H](Cc2ccccc2)NC(=O)[C@H](C)NC(=O)[C@H](CC(C)C)NC(=O)[C@H](CC(C)C)NC1=O`: “Active”; `CC(=O)NCC(=O)NCC(=O)NCC(=O)N[C@H]1CNC(=O)[C@H](CC(C)C)NC(=O)[C@H](C)NC(=O)[C@H](CC(C)C)NC(=O)[C@H](Cc2ccccc2)NC1=O` (Ac-GGG[Dap]FLAL; lactam 4-C): “inactive”.
Same read-out and setting: the value for `CCCCCCC(=O)N[C@H]1CCNC(=O)[C@H](CC(C)C)NC(=O)[C@H](C)NC(=O)[C@H](CC(C)C)NC(=O)[C@H](Cc2ccccc2)NC1=O` (Heptanoyl-[Dab]FLAL; lactam 1-C) was “inactive”.
For `CCCCCCC(=O)N[C@H]1CNC(=O)[C@H](CC(C)C)NC(=O)[C@H](C)NC(=O)[C@H](CC(C)C)NC(=O)[C@H](Cc2ccccc2)NC1=O`, the IC50 in test [1] was 19100 nM. The inhibition entry in test [2] was “Active”.
As for `CC(=O)N[C@H]1CNC(=O)[C@H](CC(C)C)NC(=O)[C@H](C)NC(=O)[C@H](CC(C)C)NC(=O)[C@H](Cc2ccccc2)NC1=O` (Ac-[Dap]FLAL; lactam 1-C), in test [2], the inhibition entry is “inactive”.
Consider `CCCCCC(=O)N[C@@H]1CNC(=O)[C@@H](CC(C)C)NC(=O)[C@@H](C)NC(=O)[C@@H](CC(C)C)NC(=O)[C@@H](Cc2ccccc2)NC1=O`, for which the IC50 in test [1] was 1430 nM. In addition, the inhibition entry in test [2] is “Active”.
